Measured values taken from patent US6589570B1, “Pharmaceutical formulation useful for the treatment of hepatitis B, hepatitis C and other viral infections of the liver and a process for its preparation” (priority 1999, dated 2003).

Tests used:
cultured rat hepatocytes = details: cited from earlier work
isolated rat hepatocytes = assay: Anti hepatotoxic potential, β-galactosamine challenged isolated rat hepatocytes; format: cell-based; details: 0.5 mM
Description: The liver was perfused through the portal vein with 30-50 ml of cold sodium citrate (0.027M) in calcium free lockets solution. During the perfusion, the liver gets blanched and fully distended. Perfusion is generally completed within 5 minutes of anaesthetizing the animal. The perfused liver is excised and washed well with the perfusion fluid and pressed in folds of sterile filter paper, weighed and cut into several small pieces and with a pair of scissors. A known wet weight of the liver (usually between 2-6 gm) was transferred with 5 volume of cold 0.25M sucrose into a sterile glass homogenizer and finely grounded. The cell suspension was filtered once, without application of pressure through 200-mesh brass gauze to remove strands of connective tissue and clumps of cells. The suspension contained some cell debris and blood cells at this stage, which were removed by centrifugation at a low speed (100-200 g) for 2 minutes. After removal of the supernatant, the cell sediment was resuspended in a known volume of the minimum essential medium for further studies. […] The cells, which have not taken the dye, are live cells, which are counted. […] Four sets of isolated rat hepatocyte cultures were put up. […] Set III with 0.5 mM concentration of β-galactosamine, a known hepatotoxic agent and set IV was treated with β-galactosamine and then protected with the formulation of the present invention. […]

SMILES	CCl4 or galatosamine induced cytotoxicity to cultured rat hepatocytes (cultured rat hepatocytes)	hepatotoxicity on isolated rat hepatocytes (isolated rat hepatocytes)
COC[C@@H]1Cc2cc(OC)c3c(c2[C@H](c2ccc(OC)c(OC)c2)[C@H]1COC)OCO3 [Hypo phyllanthin]	reduced	–
N[C@@H]1[C@@H](O)[C@@H](O)[C@@H](CO)O[C@H]1O [β-galactosamine]	–	profound hepatotoxic chemical
COC[C@@H](Cc1ccc(OC)c(OC)c1)[C@@H](COC)Cc1ccc(OC)c(OC)c1 [Phyllanthin]	reduced	–
